Columns and labels:
Details in all cases: in vivo, 0.5 h
Rattus norvegicus [1] = assay: Biodistribution values represent the mean % id/organ for paired rats 30 min post intravenous injection complex in Spleen; type: ADME, organism-based
Rattus norvegicus [2] = assay: Biodistribution values represent the mean % id/organ for paired rats 30 min post intravenous injection complex in Skin; type: ADME, organism-based
Rattus norvegicus [3] = assay: Biodistribution values represent the mean % id/organ for paired rats 30 min post intravenous injection complex in Liver; type: ADME, organism-based
Rattus norvegicus [4] = assay: Biodistribution values represent the mean % id/organ for paired rats 30 min post intravenous injection complex in GI; type: ADME, organism-based
Rattus norvegicus [5] = assay: Biodistribution values represent the mean % id/organ for paired rats 30 min post intravenous injection complex in Heart; type: ADME, organism-based
Rattus norvegicus [6] = assay: Biodistribution values represent the mean % id/organ for paired rats 30 min post intravenous injection complex in Fat; type: ADME, organism-based
Rattus norvegicus [7] = assay: Biodistribution values represent the mean % id/organ for paired rats 30 min post intravenous injection complex in Kidney; type: ADME, organism-based
Rattus norvegicus [8] = assay: Biodistribution values represent the mean % id/organ for paired rats 30 min post intravenous injection complex in Adrenal; type: ADME, organism-based
Rattus norvegicus [9] = assay: Biodistribution values represent the mean % id/organ for paired rats 30 min post intravenous injection complex in Muscles; type: ADME, organism-based, Muscle tissue
Rattus norvegicus [10] = assay: Biodistribution values represent the mean % id/organ for paired rats 30 min post intravenous injection complex in Bone; type: ADME, organism-based, Bone element
Rattus norvegicus [11] = assay: Biodistribution values represent the mean % id/organ for paired rats 30 min post intravenous injection complex in Blood; type: ADME, organism-based
Rattus norvegicus [12] = assay: Biodistribution values represent the mean % id/organ for paired rats 30 min post intravenous injection complex in Lungs; type: ADME, organism-based, Lung
Rattus norvegicus [13] = assay: Biodistribution values represent the mean % id/organ for paired rats 30 min post intravenous injection complex in Brain; type: ADME, organism-based

Substance | ID/organ (Rattus norvegicus [1]) | ID/organ (Rattus norvegicus [2]) | ID/organ (Rattus norvegicus [3]) | ID/organ (Rattus norvegicus [4]) | ID/organ (Rattus norvegicus [5]) | ID/organ (Rattus norvegicus [6]) | ID/organ (Rattus norvegicus [7]) | ID/organ (Rattus norvegicus [8]) | ID/organ (Rattus norvegicus [9]) | ID/organ (Rattus norvegicus [10]) | ID/organ (Rattus norvegicus [11]) | ID/organ (Rattus norvegicus [12]) | ID/organ (Rattus norvegicus [13])
Hexakis[4-Nitrobenzeneisonitrile]technetium Complex | 1.12% | 3.65% | 38% | 10.1% | 0.33% | 1.26% | 4.84% | 0.03% | 6.87% | 8.79% | 19.2% | 1.06% | 0.06%
Hexakis[4-Cyanobenzeneisonitrile]technetium Complex | 2.47% | 1.23% | 75.7% | 2.99% | 0.13% | 0.37% | 1.23% | 0.03% | 3.84% | 4.9% | 9.89% | 2.2% | 0.03%
Hexakis[4-Methoxy-alpha-tolueneisonitrile]technetium Complex | 2.45% | 0.58% | 85.6% | 3.31% | 0.08% | 0.24% | 0.45% | 0.03% | 1.92% | 2.73% | 4.56% | 1.31% | 0.02%
Hexakis[4-Acetylbenzeneisonitrile]technetium Complex | 2.28% | 0.7% | 92.7% | 3.15% | 0.03% | 0.07% | 0.66% | 0.06% | 0.68% | 4.27% | 1.13% | 1.73% | 0.01%
Hexakis[3,4,5-Trimethoxy-alpha-tolueneisonitrile]technetium Complex | 0.13% | 0.76% | 39.2% | 65.1% | 0.17% | 0.17% | 3.83% | 0.04% | 3.02% | 2.29% | 0.59% | 0.61% | 0.01%
Hexakis[3-(hydroxymethyl)benzeneisonitrile]technetium Complex | 1.85% | 0.62% | 62.2% | 13.8% | 0.12% | 0.2% | 2.98% | 0.05% | 2.99% | 3.6% | 3.39% | 0.63% | 0.01%
Hexakis[5-Methoxy-2-methyl-4-nitrobenzeneisonitrile]technetium Complex | 3.05% | 0.77% | 71.9% | 3.96% | 0.14% | 0.32% | 1.13% | 0.03% | 1.28% | 5.59% | 6.88% | 0.72% | 0.03%
Hexakis[3-Nitrobenzeneisonitrile]technetium Complex | 0.28% | 5.3% | 13.8% | 42.9% | 0.17% | 0.51% | 5.21% | 0.01% | 7.61% | 5.74% | 9.44% | 0.37% | 0.03%
Hexakis[3,5-Dimethoxybenzeneisonitrile]technetium Complex | 2.25% | 0.26% | 92.5% | 3.12% | 0.03% | 0.11% | 0.49% | 0% | 0.74% | 1.53% | 0.5% | 1.83% | 0.01%
Hexakis[3,4-(Methylenedioxy)benzeneisonitrile]technetium Complex | 1.82% | 0.19% | 91.8% | 0.38% | 0.03% | 0.08% | 0.12% | 0.05% | 0.47% | 4.73% | 1.45% | 2.62% | 0.01%
Hexakis[2-(3,4-Dimethoxyphenyl)ethaneisonitrile]technetium Complex | 1.91% | 0.82% | 77.5% | 15.7% | 0.07% | 0.14% | 1.26% | 0.04% | 1.77% | 2.96% | 3% | 1.1% | 0.02%
Hexakis[3,4-Dimethoxybenzeneisonitrile]technetium Complex | 4.5% | 1.07% | 87.7% | 2.44% | 0.13% | 0.4% | 0.61% | 0.07% | 4.67% | 4.38% | 3.92% | 1.89% | 0.02%
Hexakis-(2-methoxyisobutylisonitrile)Technetium (99mTc-MIBI) | 0.6% | 3.95% | 10.8% | 30.3% | 2.36% | 0.73% | 6.26% | 0.16% | 18.5% | 11% | 0.33% | 0.71% | 0.05%
Hexakis[3,4-(Methylenedioxy)-alpha-tolueneisonitrile]technetium Complex | 2.78% | 0.6% | 73.8% | 5.75% | 0.15% | 0.26% | 0.61% | 0.07% | 3.9% | 4.29% | 4.19% | 3.04% | 0.01%
Hexakis[2-(3,4,5-Trimethoxyphenyl)ethaneisonitrile]technetium Complex | 1.5% | 1.33% | 44.2% | 24.5% | 0.38% | 0.19% | 10% | 0.12% | 4.84% | 5.11% | 0.93% | 0.43% | 0.01%

Reference: ChEMBL document CHEMBL1128489, “Novel hexakis(areneisonitrile)technetium(I) complexes as radioligands targeted to the multidrug resistance P-glycoprotein” (J Med Chem, 1995)
